The text below walks through data of PubChem BioAssay (NCI).

Each structure is given as a SMILES string.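 Where inhibition never reached the appropriate level, the endpoint shown equals the highest concentration tested. Otherwise, values were interpolated linearly from a five-concentration, 48-hour dose response in 96-well plates. GI50 is the concentration that inhibits growth by half. Definition used: TGI = concentration required for complete inhibition of growth.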

What all share (assay): inhibition of tumour cell growth, NCI panel, 48 h
For assay [1], the system named is BT-549 breast.
The test system of assay [2] is DU-145 prostate.
Assay [3] relates to NCI-H226 lung.
Assay [4] concerns OVCAR-5 ovarian.
For assay [5], the system named is PC-3 prostate.
Assay [6] relates to SF-539 CNS.
For assay [7], the system named is SK-MEL-2 melanoma.
The test system of assay [8] is SK-OV-3 ovarian.
Assay [9] has as its system SNB-19 CNS.
In assay [10] the test system is UO-31 renal.

As to `COc1cccc(/C=C2\N=C(c3ccccc3)OC2=O)c1`, the TGI in assay [1], in assay [2], in [3], in assay [4], in [5] and in assay [6] was over 100 µM throughout. Also, the TGI in assay [7], in assay [8], in [9] and in [10] was over 100 µM each time.

Turning to `O=C1/C(=C/c2ccc(Cl)cc2)CCC1CNc1ccc(Cl)cc1` (stereo not drawn), the TGI in assay [1] is 65.3 µM; in assay [2], 31.8 µM; in assay [3] it was 98 µM; in [4] it was over 77.3 µM; in assay [5], 45.6 µM; in assay [6] it was 23.3 µM. Also, the TGI in [7] was 58.5 µM; in [8], over 31.4 µM; in assay [9], 35.7 µM; in [10] it was 30.1 µM.

In the case of `COc1cc(C(=O)c2cnc(-c3c[nH]c4cccc(C)c34)[nH]2)cc(OC)c1OC`, the GI50 in assay [1] was 0.0204 µM; in assay [2], 0.00756 µM; in assay [3], 0.00485 µM; in assay [4] it was 0.0746 µM; in [5] it was 0.00537 µM; in [6], 0.00289 µM. For the same molecule, the GI50 is 0.00745 µM in [7], 0.0065 µM in assay [8], 0.00505 µM in [9] and 0.00965 µM in assay [10]. Further, the TGI in [2] was over 100 µM; in assay [4], over 100 µM; in assay [5], over 100 µM; in [6], 0.00874 µM; in assay [7], 30.7 µM; in assay [8], 2.5 µM. The TGI was over 100 µM in assay [9] and 14.7 µM in assay [10].

Consider `Clc1ccc(C=Nc2ccc(-c3nc4ccccc4[nH]3)cc2)cc1`, for which the GI50 in [1], in assay [2], in [3], in [4], in assay [5] and in [6] was over 100 µM each time. Also, the GI50 is over 100 µM in assay [7], over 100 µM in assay [8], 55.6 µM in [9] and over 100 µM in [10]. For the same molecule, the TGI in [1], in [2], in assay [3], in assay [4], in assay [5] and in assay [6] was over 100 µM in each case. Further, the TGI in assay [7], in assay [8], in [9] and in assay [10] was over 100 µM throughout.

Regarding `CCN(CC)CCOC(COc1cc(C)cc(C)c1)COc1cc(C)cc(C)c1`, the GI50 was 6.12 µM in assay [1]; 3.4 µM in assay [2]; 7.16 µM in [3]; 1.85 µM in assay [4]; 2.6 µM in assay [5]; 1.62 µM in assay [6]. Also, the GI50 in [7] is 11.6 µM; in [8], 4.86 µM; in [9] it was 2.3 µM; in assay [10], 2.19 µM. For the same molecule, the TGI in [1] was 20.7 µM; in assay [2], 13.4 µM; in assay [3], 23.9 µM; in [4], 6.18 µM; in assay [5], 10.1 µM; in [6], 3.3 µM. In addition, the TGI in assay [7] turned out to be 25.8 µM; in assay [8] it was 17.7 µM; in assay [9] it was 7.36 µM; in assay [10] it was 13 µM.

As to `CCCN1C(=O)/C(=C/c2ccc(SC(F)(F)F)cc2)SC1=Nc1ccc(OC)cc1`, the GI50 is 45.1 µM in [1]; 21.8 µM in [2]; 14.8 µM in assay [3]; 7.84 µM in assay [4]; 15.6 µM in assay [5]; 9.96 µM in assay [6]. Also, the GI50 was 36.5 µM in assay [7], 15.2 µM in [8], 17.4 µM in [9] and 8.2 µM in assay [10]. For the same molecule, the TGI in assay [1] is over 50 µM; in assay [2], over 50 µM; in assay [3] it was over 50 µM; in assay [4], 24 µM; in [5], over 50 µM; in assay [6] it was 21.6 µM. Besides, the TGI is over 50 µM in assay [7], over 50 µM in [8], over 50 µM in assay [9] and 17.1 µM in assay [10].

With `O=C(/C=C/c1ccc(O)c(O)c1)N1CCN(c2ccc(Cl)cc2)CC1`, the GI50 was 5.21 µM in [1]; 10.5 µM in assay [2]; 4.63 µM in [3]; 13.3 µM in assay [4]; 4.67 µM in assay [5]; 4.4 µM in assay [6]. Besides, the GI50 in assay [7] is 12.1 µM; in [8], 10.1 µM; in assay [9] it was 5.17 µM; in assay [10] it was 2.08 µM. Moreover, the TGI in [1] was found to be 45.6 µM; in [2] it was 47.5 µM; in assay [3], 26.4 µM; in [4] it was 85.7 µM; in assay [5], 31.1 µM; in [6], 21.1 µM. The TGI was determined as 31.9 µM in assay [7], 67.7 µM in assay [8], 98.1 µM in [9] and 20.1 µM in assay [10].

Regarding `[O]=[Sn]([CH]1CCCCC1)[CH]1CCCCC1`, the GI50 in [1] was 0.229 µM; in assay [2], 0.259 µM; in assay [3], 0.229 µM; in assay [4], 0.62 µM; in assay [5], 0.517 µM; in [6], 0.24 µM. Besides, the GI50 was 0.108 µM in assay [7], 1.2 µM in [8], 0.271 µM in [9] and 0.293 µM in [10]. The TGI was found to be 0.588 µM in [1]; 0.839 µM in assay [2]; 0.657 µM in assay [3]; 1.71 µM in assay [4]; 1.94 µM in assay [5]; 0.71 µM in [6]. For the same molecule, the TGI in assay [7] amounted to 0.284 µM; in [8], 2.52 µM; in assay [9], 0.95 µM; in assay [10], 1.08 µM.

Regarding `CCn1c(-c2nonc2N)nc2ccccc21`, the GI50 was over 25 µM in assay [1]; over 25 µM in assay [2]; over 14.9 µM in assay [3]; over 25 µM in assay [4]; over 25 µM in assay [5]; over 25 µM in [6]. The GI50 in assay [7], in assay [8], in assay [9] and in assay [10] was over 25 µM throughout. The TGI in assay [1], in assay [2], in [3], in assay [4], in assay [5] and in assay [6] was over 25 µM each time. In addition, the TGI in assay [7], in [8], in assay [9] and in assay [10] was over 25 µM in each case.

Regarding `OCCCN=C1CCCCC1`, the TGI in [1], in assay [2], in [3], in assay [4], in assay [5] and in [6] was over 100 µM in each case. For the same molecule, the TGI in assay [7], in assay [8], in assay [9] and in assay [10] was over 100 µM throughout.

`Clc1ccc2c(NCCNc3nc(N4CCOCC4)nc4ccccc34)ccnc2c1`: the GI50 is 2.07 µM in assay [1]; 4.99 µM in [2]; 1.68 µM in assay [3]; 3.34 µM in assay [4]; 4.5 µM in assay [5]; 1.73 µM in assay [6]. For the same molecule, the GI50 in [7] was 1.95 µM; in [8] it was 1.85 µM; in [9] it was 2.59 µM; in assay [10] it was 1.34 µM. Besides, the TGI was 4.69 µM in [1]; 17 µM in assay [2]; 3.57 µM in assay [3]; 12.6 µM in [4]; 17.1 µM in assay [5]; 3.34 µM in assay [6]. For the same molecule, the TGI in assay [7] is 3.72 µM; in assay [8], 3.85 µM; in assay [9], 8.78 µM; in assay [10] it was 2.68 µM.

Turning to `COc1cc(-c2nc(-c3ccccc3)c(-c3ccccc3)[nH]2)cc(OC)c1O`, the GI50 in [1] is 19.5 µM; in [2] it was 17 µM; in [3], 21.2 µM; in assay [4], 15.4 µM; in assay [5], 17.9 µM; in assay [6], 15.8 µM. For the same molecule, the GI50 in [7] was 19.8 µM; in [8] it was 23.1 µM; in assay [9], 20.8 µM; in assay [10], 13.2 µM. Moreover, the TGI was determined as 39.5 µM in [1]; 32.1 µM in [2]; 50 µM in assay [3]; 31.7 µM in [4]; 50.2 µM in assay [5]; 30.8 µM in assay [6]. The TGI amounted to 35.5 µM in [7], 47.8 µM in assay [8], 52.9 µM in assay [9] and 31 µM in assay [10].

Regarding `COc1ccc2nc3ccccc3c(NCCNCCO)c2c1`, the GI50 in [1] was 1.01 µM; in assay [2], 0.588 µM; in assay [3], 0.947 µM; in [4] it was 1.18 µM; in assay [5] it was 0.554 µM; in [6], 0.801 µM. For the same molecule, the GI50 in assay [7] is 0.448 µM; in assay [8], 0.869 µM; in assay [9] it was 0.661 µM; in assay [10] it was 0.328 µM. For the same molecule, the TGI in [1] turned out to be 4.29 µM; in [2], 5.8 µM; in [3], 3.38 µM; in assay [4] it was 8.85 µM; in assay [5] it was 3.79 µM; in [6] it was 2.99 µM. The TGI came to 2.8 µM in [7], 7.67 µM in assay [8], 6.9 µM in [9] and 1.68 µM in assay [10].

For the molecule `S=c1ssnc1-c1cc2ccccc2o1`, the GI50 in assay [1] is 13.8 µM; in assay [2], 7.35 µM; in [3], 23.2 µM; in assay [4] it was 20.8 µM; in assay [5], 3.82 µM; in assay [6], 15.3 µM. In addition, the GI50 in [7] was 13.8 µM; in [8] it was 18.7 µM; in [9] it was 16.7 µM; in assay [10], 13.4 µM. Besides, the TGI in [1] was found to be 27.7 µM; in assay [2] it was 20.4 µM; in assay [3], 54.4 µM; in assay [4] it was 39.2 µM; in assay [5], 24.2 µM; in [6], 29.8 µM. Also, the TGI in assay [7] was determined as 28.3 µM; in assay [8], 39.2 µM; in assay [9], 36.8 µM; in assay [10], 30 µM.

`O=C1CCC(c2ccccc2)=NN1c1nc2ccccc2s1`: the TGI is 82.5 µM in assay [1]; 64.6 µM in assay [2]; over 100 µM in assay [3]; over 100 µM in assay [4]; 69.2 µM in assay [5]; over 63.7 µM in assay [6]. The TGI in assay [7] is 42.5 µM; in assay [8] it was 79.6 µM; in assay [9], over 100 µM; in assay [10] it was over 100 µM.

Regarding `CCSC[C@@H]1C[C@](O)(c2ccccc2)[C@@H](c2ccccc2)O1`, the GI50 in [1] is 89.1 µM; in assay [2], over 100 µM; in assay [3], over 77.1 µM; in [4], over 100 µM; in assay [5], 56.7 µM; in assay [6] it was over 100 µM. In addition, the GI50 is over 100 µM in assay [7], over 100 µM in assay [8], over 100 µM in [9] and 51.2 µM in [10]. The TGI in assay [1], in assay [2], in [3], in assay [4], in assay [5] and in assay [6] was over 100 µM in each case. Besides, the TGI in assay [7], in assay [8], in assay [9] and in assay [10] was over 100 µM in each case.

In the case of `O=c1c(I)c[nH]cc1I`, the GI50 in assay [1], in assay [2], in [3], in assay [4], in assay [5] and in assay [6] was over 100 µM in each case. The GI50 in assay [7], in assay [8], in [9] and in assay [10] was over 100 µM each time. Further, the TGI in assay [1], in [2], in assay [3], in [4], in assay [5] and in [6] was over 100 µM each time. Also, the TGI in assay [7], in assay [8], in assay [9] and in assay [10] was over 100 µM each time.
